Consider three compounds from patent CN113018415A, “一种新的药物组合及其应用” (priority 2021, dated 2021).

Peptide text beside a SMILES is read from it. * marks the point of attachment. Cbz = O=C(OCc1ccccc1)*

Assay [1] deals with 急性早幼粒白血病细胞NB4. Put plainly: Mouse APL model: flow cytometry of bone marrow cells for human CD33+. The settings on record: moribund mice, bone marrow cultured 24 h; oprozomib 0.43 mg/kg iv, arsenic trioxide 1.53 mg/kg iv; compared with positive control; Fig. 8-12. In kind it is in vivo, NOD/SCID小鼠. On the technique in general: A flow cytometer gives signals particle by particle.

Assay [2] has as its system 急性早幼粒白血病细胞NB4. Put plainly: MTT cell survival assay, NB4 cells. The settings on record: 48 h; for 细胞存活率 (cell survival rate): arsenic trioxide 0.1-0.5 μM, oprozomib 5-40 nM, alone or combined (fixed 40 nM oprozomib or fixed 0.4 μM arsenic trioxide), Fig. 1, 2; for Enhancement of the cancer cell inhibition of arsenic trioxide by a proteasome inhibitor: proteasome inhibitor fixed 40 nM combined with arsenic trioxide 0.1-0.5 μM, Fig. 6. Format: cell-based.

A further assay has as its system 急性早幼粒白血病细胞HL-60. As to the kind of experiment: MTT cell survival assay, HL-60 cells. Format: cell-based. As to conditions: HL-60, MTT, 48 h; arsenic trioxide 0.4-2 μM, oprozomib 40-200 nM, alone or combined (fixed 160 nM oprozomib or fixed 1.2 μM arsenic trioxide); Fig. 3, 4.
Another assay deals with 慢性髓性白血病细胞K562. Put plainly: MTT cell survival assay, K562 cells. Format: cell-based. The settings on record: 48 h, arsenic trioxide 0.4 μM, oprozomib 40 nM, alone or combined, Fig. 5.
For assay [3], the system named is 急性早幼粒白血病细胞NB4. As to the kind of experiment: Mouse APL model: CD33 immunohistochemistry of liver and spleen sections. The settings on record: oprozomib 0.43 mg/kg iv, arsenic trioxide 1.53 mg/kg iv; compared with control group; Fig. 14. In kind it is in vivo, NOD/SCID小鼠.
For a further assay, the system named is 人肝癌细胞SMMC-7721. As to the kind of experiment: MTT cell survival assay, SMMC-7721 cells. In kind it is cell-based, 人. As to conditions: SMMC-7721, MTT, 48 h; arsenic trioxide 0.4 μM, oprozomib 40 nM, alone or combined; Fig. 5.
The next assay deals with 人结直肠腺癌细胞CaCo-2. Put plainly: MTT cell survival assay, CaCo-2 cells. Format: cell-based, 人. The settings on record: CaCo-2, MTT, 48 h; arsenic trioxide 0.4 μM, oprozomib 40 nM, alone or combined; Fig. 5. (Tetrazolium dyes change colour on reduction, which living cells bring about.)
For assay [4], the system named is 急性早幼粒白血病细胞NB4. Put plainly: Mouse APL model: HE staining of liver and spleen sections. The settings on record: oprozomib 0.43 mg/kg iv, arsenic trioxide 1.53 mg/kg iv; compared with control group; Fig. 13. In kind it is in vivo, NOD/SCID小鼠.

Regarding `O=[As][As+](=O)[O-]` (stereo not drawn) [三氧化二砷], in the assay with 急性早幼粒白血病细胞NB4 [1], the “Human CD33+ positive cells in mouse bone marrow” value is recorded as “有所减少”. In addition, the “细胞存活率 (cell survival rate)” value in the assay on 急性早幼粒白血病细胞NB4 [2], with 急性早幼粒白血病细胞HL-60, with 慢性髓性白血病细胞K562, in the assay with 人肝癌细胞SMMC-7721 and with 人结直肠腺癌细胞CaCo-2 was “无明显影响” each time. In the assay on 急性早幼粒白血病细胞NB4 [3], the “Human CD33 expression in liver and spleen sections (immunohistochemistry)” value is “略有减少但不明显”. Further, the “Infiltrating tumour cells in liver and spleen (HE staining)” value in the assay with 急性早幼粒白血病细胞NB4 [4] is “略有减少但不明显”.

For the compound `COC[C@H](NC(=O)c1cnc(C)s1)C(=O)N[C@@H](COC)C(=O)N[C@@H](Cc1ccccc1)C(=O)[C@@]1(C)CO1` [奥普佐米], the “Human CD33+ positive cells in mouse bone marrow” value in the assay on 急性早幼粒白血病细胞NB4 [1] is “有所减少”. Further, the “细胞存活率 (cell survival rate)” value in the assay with 急性早幼粒白血病细胞NB4 [2], in the assay with 急性早幼粒白血病细胞HL-60, in the assay with 慢性髓性白血病细胞K562, in the assay on 人肝癌细胞SMMC-7721 and in the assay with 人结直肠腺癌细胞CaCo-2 was “无明显影响” throughout. Also, the “Enhancement of the cancer cell inhibition of arsenic trioxide by a proteasome inhibitor” value with 急性早幼粒白血病细胞NB4 [2] is given as “能极大地提升三氧化二砷的癌细胞抑制效果”. In the assay with 急性早幼粒白血病细胞NB4 [3], the “Human CD33 expression in liver and spleen sections (immunohistochemistry)” value is on record as “略有减少但不明显”. Besides, in the assay on 急性早幼粒白血病细胞NB4 [4], the “Infiltrating tumour cells in liver and spleen (HE staining)” value is recorded as “略有减少但不明显”.

On to `CC(C)C[C@@H](C=O)NC(=O)[C@H](CC(C)C)NC(=O)[C@H](CC(C)C)NC(=O)OCc1ccccc1` [MG132] (Cbz-Leu-Leu-Leu-aldehyde), for which the “Enhancement of the cancer cell inhibition of arsenic trioxide by a proteasome inhibitor” value in the assay with 急性早幼粒白血病细胞NB4 [2] is listed as “并不能增加三氧化二砷的癌细胞抑制效果”.
